{"source": "patent US20210121493A1", "about": "“METHODS FOR TREATING LIVER DISEASES” (Cedars-Sinai Medical Center, priority 2017, published 2021)", "key": {"HepG2 cell line": {"system": "HepG2 cell line", "assay": "Growth of HepG2 cells by BrdU incorporation", "assay_type": "cell-based, human", "method": "HepG2 cells were treated with 100 μM SAMe, 10 μM OCA individually or combined for 24 hours. Growth was determined using BrdU incorporation. SAMe was mixed in saline and OCA was mixed in DMSO (0.1% final), which yielded the same values. As shown in Table 1 and FIG. 2, while OCA alone induced growth of the cancer cell line, SAMe inhibited growth of the cancer cell line even in the presence of OCA. SAMe, OCA and SAMe+OCA were 58.65%, 124.05% and 89.5%, respectively, of their respective controls.\n(§1) HepG2 (immortalized cell line consisting of human liver carcinoma cells) cells were treated with 100 μM SAMe, 10 nM GW4064 individually or combined for 24 hours. Growth was determined using BrdU incorporation. SAMe was mixed in saline and GW4064 was mixed in DMSO (0.1% final), which yielded the same values. As shown in Table 2 and FIG. 3, while GW4064 alone induced growth of the cancer cell line, SAMe inhibited growth of the cancer cell line even in the presence of GW4064. SAMe, GW4064 and SAMe+GW4064 were 75.52%, 155.70% and 116.97%, respectively, of their respective controls.\nas §1, with “Tropifexor” for “GW4064”, “Tropifexor.” for “GW4064.”, “SAMe+Tropifexor” for “SAMe+GW4064”, “151.04%” for “155.70%”, “114.77%,” for “116.97%,”"}, "MAFG": {"system": "MAFG", "assay": "expression of the oncogene MAFG"}, "[1]": {"system": "MzChA-1 (cholangiocarcinoma) cells or HepG2 cells", "assay": "xenograft mice models, tumor volume", "assay_type": "in vivo", "conditions": "SAMe 100 mg/kg/day orally", "method": "Mice were injected with MzChA-1 (cholangiocarcinoma) cells or HepG2 (immortalized cell line consisting of human liver carcinoma cells) cells. In mice treated with OCA, 30/mg/kg/day of OCA was administered orally. In mice treated with SAMe, 100 mg/kg/day was administered orally."}, "[2]": {"conditions": "HepG2, 10 μM OCA in DMSO, 24 hours"}, "[3]": {"conditions": "HepG2, 100 μM SAMe in saline, 24 hours"}, "[4]": {"conditions": "HepG2, 100 μM SAMe, 24 hours (Example 2)"}, "[5]": {"conditions": "HepG2, 10 nM Tropifexor, 24 hours"}, "[6]": {"conditions": "HepG2, 10 nM Tropifexor, 24 hours, listed as Tropi"}}, "note": "Values joined by “and” are separate entries in the source; they are usually repeats but may differ in a detail not shown here. Equal entries are not always repeated.", "data": [{"molecule": "CC(C)c1onc(-c2c(Cl)cccc2Cl)c1COc1ccc(/C=C/c2cccc(C(=O)O)c2)c(Cl)c1", "note": "[GW4064]", "values": [{"measurement": "BrdU Incorporation OD540 nm, AVE", "setting": "HepG2 cell line; HepG2, 10 nM GW4064, 24 hours", "value": 0.1502}, {"measurement": "BrdU Incorporation, % of respective controls", "setting": "HepG2 cell line; HepG2, 10 nM GW4064, 24 hours", "value": 155.70, "unit": "%"}, {"measurement": "BrdU Incorporation, % of respective controls", "setting": "HepG2 cell line; HepG2, 10 nM GW4064, 24 hours, listed as GW", "value": 155.6995, "unit": "%"}]}, {"molecule": "CC[C@H]1[C@@H](O)[C@@H]2[C@H](CC[C@]3(C)[C@@H]([C@H](C)CCC(=O)O)CC[C@@H]23)[C@@]2(C)CC[C@@H](O)C[C@@H]12", "note": "[OCA, 6α-ethyl-chenodeoxycholic acid]", "values": [{"measurement": "BrdU incorporation, Ave", "setting": "HepG2 cell line; [2]", "value": 0.18}, {"measurement": "BrdU incorporation, single readings", "setting": "HepG2 cell line; [2]", "value": "0.181 and 0.175 and 0.202 and 0.186 and 0.162 and 0.177"}, {"measurement": "BrdU Incorporation, % of respective controls", "setting": "HepG2 cell line; HepG2, 10 μM OCA, 24 hours", "value": 124.05, "unit": "%"}]}, {"molecule": "C[S+](CC[C@H](N)C(=O)O)C[C@H]1O[C@@H](n2cnc3c(N)ncnc32)[C@H](O)[C@@H]1O", "note": "(stereo partly drawn) [SAMe, S-adenosylmethionine]", "values": [{"measurement": "BrdU incorporation, Ave", "setting": "HepG2 cell line; [3]", "value": 0.09}, {"measurement": "BrdU incorporation, single readings", "setting": "HepG2 cell line; [3]", "value": "0.103 and 0.089 and 0.101 and 0.055 and 0.075"}, {"measurement": "BrdU Incorporation, % of respective controls", "setting": "HepG2 cell line; HepG2, 100 μM SAMe, 24 hours (Example 1)", "value": 58.65, "unit": "%"}, {"measurement": "BrdU Incorporation OD540 nm, AVE", "setting": "HepG2 cell line; [4]", "value": 0.07287}, {"measurement": "BrdU Incorporation OD540 nm, single readings", "setting": "HepG2 cell line; [4]", "value": "0.065 and 0.066 and 0.064 and 0.072 and 0.059 and 0.113 and 0.08"}, {"measurement": "BrdU Incorporation, % of respective controls", "setting": "HepG2 cell line; [4]", "value": 75.52, "unit": "%"}, {"measurement": "effect on expression of MAFG", "setting": "MAFG", "value": "decreases expression of MAFG"}, {"measurement": "tumor volume versus control group", "setting": "[1]", "value": "lower than the control group"}]}, {"molecule": "O=C(O)c1cc(F)c2nc(N3[C@@H]4CC[C@H]3C[C@@H](OCc3c(-c5ccccc5OC(F)(F)F)noc3C3CC3)C4)sc2c1", "note": "[Tropifexor]", "values": [{"measurement": "BrdU Incorporation OD540 nm, AVE", "setting": "HepG2 cell line; [5]", "value": 0.1457}, {"measurement": "BrdU Incorporation, % of respective controls", "setting": "HepG2 cell line; [5]", "value": 151.04, "unit": "%"}, {"measurement": "BrdU Incorporation OD540 nm, single readings", "setting": "HepG2 cell line; [6]", "value": "0.153 and 0.121 and 0.134 and 0.125 and 0.105 and 0.173 and 0.202"}, {"measurement": "BrdU Incorporation, % of respective controls", "setting": "HepG2 cell line; [6]", "value": 151.0363, "unit": "%"}]}]}
